This note sets out measurements from US4187373A, “Novel dihydrobenzanthracene derivatives” (American Cyanamid Company, priority 1978, dated 1980).

Structures are written as SMILES. Several values for one entry are separate records, joined by “and”; a condition that tells them apart may be missing. Identical values can stand only once. Counter-ions that a name gives are not always drawn.

Experiment [1] has as its system melanotic melanoma B16 tumor. The experiment can be described thus: Melanotic Melanoma B16. It is filed as in vivo, C57BC/6 mice. Here is the method:
The animals used are C57BC/6 mice, all of the same sex, weighing a minimum of 17 g. and all within a 3 g. weight range. There are normally 10 animals per test group. A one-gram portion of melanotic melanoma B16 tumor is homogenized in 10 ml. of cold balanced salt solution and a 0.5 ml. aliquot of the homogenate is implanted intraperitoneally into each of the test mice. The test compounds are administered intraperitoneally on days one through 9 (relative to tumor inoculation) at various doses. The animals are weighed and survivors are recorded on a regular basis for 60 days. The median survival time and the ratio of survival time for treated (T)/control (C) animals are calculated. The positive control compound is 5-fluorouracil given as a 20 mg./kg. injection. The results of this test with a representative compound of the present invention appear in Table III below. The criterion for efficacy is T/C×100≥125%.

For experiment [2], the system named is lymphocytic leukemia P388. The experiment in a line: Lymphocytic Leukemia P388 Test. In kind it is in vivo, mice. Here is the method:
The animals used are mice all of one sex, weighing a minimum of 17 g. and all within a 3 gram weight range. There are 5 or 6 animals per test group. The tumor transplant is by intraperitoneal injection of 0.1 ml. or 0.5 ml. of dilute ascitic fluid containing 10^6 cells of lymphocytic leukemia P388. The test compounds are administered intraperitoneally on days one, 5 and 9 (relative to tumor inoculation) at various doses. The animals are weighed and survivors are recorded on a regular basis for 30 days. The median survival time and the ratio of survival time for treated (T)/control (C) animals are calculated. […] The results of this test with representative compounds of the present invention appear in Table II below. The criterion for efficacy is T/C×100≥125%.

The test system of the next experiment is Enterococcus, SM 77-15. The experiment in a line: antibacterial activity in vitro, agar-dilution streak-plate technique. It is filed as cell-based. The following applies: SM7715, 37° C. for 18 hours, read-out: minimal inhibitory concentration (MIC). Here is the method:
(§1) The antibacterial spectrum in terms of the concentration required to inhibit the growth of various typical bacteria was determined in a standard manner by the agar-dilution streak-plate technique. A Steers multiple inocula replicator was used with incubation at 37° C. for 18 hours in Mueller-Ninton agar. The results for 7,12-bis-(2-imidazolin-2-ylhydrazone)benz[a]anthracene-7,12-dicarboxaldehyde dihydrochloride, a typical compound of this invention, are set forth in Table I as the minimal inhibitory concentration (MIC) in micrograms per milliliter.

Experiment [3] relates to Staphylococcus aureus, OSU 75-2. The description is as above. The following applies: OSU752, 37° C. for 18 hours, read-out: minimal inhibitory concentration (MIC). In kind it is cell-based. Here is the method:
as §1

The test system of experiment [4] is Staphylococcus aureus, Q 74-11. Described as above. It is filed as cell-based. The following applies: Q7411, 37° C. for 18 hours, read-out: minimal inhibitory concentration (MIC). As for the experimental part:
as §1

In experiment [5] the test system is Staphylococcus aureus, St. Paul (NYC 78-1). The experiment is described as above. The conditions noted are these: 37° C. for 18 hours, read-out: minimal inhibitory concentration (MIC). In kind it is cell-based. Here is the method: as §1
Setting [6] is: B16, positive control, dose 20 mg./kg.
The mark [7] stands for this setting: P388, positive control, dose 40 mg./kg.
The mark [8] stands for this setting: P388, positive control, dose 60 mg./kg.
[9] abbreviates: P388, dose 0.78 mg./kg. intraperitoneally on days one, 5 and 9.
The mark [10] stands for this setting: P388, dose 1.56 mg./kg. intraperitoneally on days one, 5 and 9, dihydrochloride.
Where [11] appears, read: P388, dose 3.12 mg./kg. intraperitoneally on days one, 5 and 9, dihydrochloride.
Where [12] appears, read: P388, dose 6.25 mg./kg. intraperitoneally on days one, 5 and 9, dihydrochloride.
The mark [13] stands for this setting: P388, dose 12.5 mg./kg. intraperitoneally on days one, 5 and 9, dihydrochloride.
The mark [14] stands for this setting: P388, dose 25 mg./kg. intraperitoneally on days one, 5 and 9, dihydrochloride.
Where [15] appears, read: B16, dose 0.2 mg./kg. intraperitoneally on days one through 9.
Setting [16] is: B16, dose 0.5 mg./kg. intraperitoneally on days one through 9.
The mark [17] stands for this setting: B16, dose 1.5 mg./kg. intraperitoneally on days one through 9.
[18] abbreviates: B16, dose 3 mg./kg. intraperitoneally on days one through 9.
Where [19] appears, read: P388, dose 1.56 mg./kg. intraperitoneally on days one, 5 and 9.
Where [20] appears, read: P388, dose 3.12 mg./kg. intraperitoneally on days one, 5 and 9.
Where [21] appears, read: P388, dose 6.25 mg./kg. intraperitoneally on days one, 5 and 9.
Setting [22] is: P388, dose 12.5 mg./kg. intraperitoneally on days one, 5 and 9.
The mark [23] stands for this setting: P388, dose 25 mg./kg. intraperitoneally on days one, 5 and 9.

For the compound `O=c1[nH]cc(F)c(=O)[nH]1` [5-Fluorouracil, 5-fluorouracil, reference compound], the “Median Survival” value in experiment [1] (setting [6]) is 25.5 days; in experiment [2] (setting [7]), 18 days and 18.5 days; in experiment [2] (setting [8]), 12.5 days and 20.0 days. For the same compound, the “T/C × 100 (Percent)” value in experiment [1] (setting [6]) is 155%; in experiment [2] (setting [7]), 164% and 154%; in experiment [2] (setting [8]), 109% and 200%.
Consider `C(=NNC1=NCCN1)C1c2ccccc2C(C=NNC2=NCCN2)c2c1ccc1ccccc21` (stereo not drawn) [Bis(2-imidazolin-2-ylhydrazone) of 7,12-dihydrobenz[a]anthracene-7,12-dicarboxaldehyde dihydrochloride], for which the “Median Survival” value in experiment [2] (setting [9]) was 13.0 days; in experiment [2] (setting [10]) it was 13.5 days; in experiment [2] (setting [11]) it was 16.5 days; in experiment [2] (setting [12]), 16.5 days; in experiment [2] (setting [13]) it was 17.5 days; in experiment [2] (setting [14]), 17 days. In addition, the “T/C × 100 (Percent)” value in experiment [2] (setting [9]) was determined as 130%; in experiment [2] (setting [10]), 135%; in experiment [2] (setting [11]), 165%; in experiment [2] (setting [12]) it was 165%; in experiment [2] (setting [13]), 175%; in experiment [2] (setting [14]) it was 170%.
Regarding `C(=NNC1=NCCN1)c1c2ccccc2c(C=NNC2=NCCN2)c2c1ccc1ccccc12` [Bis(2-imidazolin-2-ylhydrazone) of benz[a]anthracene-7,12-dicarboxaldehyde], the “Median Survival” value was 22.0 days in experiment [1] (setting [15]), 25.0 days in experiment [1] (setting [16]), 30.5 days in experiment [1] (setting [17]) and 31.0 days in experiment [1] (setting [18]). The “T/C × 100 (Percent)” value in experiment [1] (setting [15]) is given as 133%; in experiment [1] (setting [16]), 152%; in experiment [1] (setting [17]), 185%; in experiment [1] (setting [18]), 188%.
Regarding `C(=NNC1=NCCN1)c1c2ccccc2c(C=NNC2=NCCN2)c2cc3ccccc3cc12` [Bis(2-imidazolin-2-ylhydrazone)-5,12-benz[b]anthracene dicarboxaldehyde dihydrochloride], the “Median Survival” value came out at 15.0 days in experiment [2] (setting [9]); 15.5 days in experiment [2] (setting [19]); 18.0 days in experiment [2] (setting [20]); 18.5 days in experiment [2] (setting [21]); 22.0 days in experiment [2] (setting [22]). Also, the “T/C × 100 (Percent)” value worked out at 130% in experiment [2] (setting [9]); 135% in experiment [2] (setting [19]); 157% in experiment [2] (setting [20]); 161% in experiment [2] (setting [21]); 191% in experiment [2] (setting [22]).
Turning to `C(=NNC1=NCCN1)C1c2ccccc2C(C=NNC2=NCCN2)c2c1ccc1ccccc21` (stereo not drawn) [Bis(2-imidazolin-2-ylhydrazone)-7,12-dihydro-benz[a]anthracene dicarboxaldehyde], the “Median Survival” value in experiment [2] (setting [19]) came out at 14.5 days; in experiment [2] (setting [20]), 14 days; in experiment [2] (setting [21]), 16 days; in experiment [2] (setting [22]), 18 days; in experiment [2] (setting [23]), 20 days. Besides, the “T/C × 100 (Percent)” value is recorded as 132% in experiment [2] (setting [19]); 127% in experiment [2] (setting [20]); 145% in experiment [2] (setting [21]); 164% in experiment [2] (setting [22]); 182% in experiment [2] (setting [23]).
In the case of `C(=NNC1=NCCN1)c1c2ccccc2c(C=NNC2=NCCN2)c2c1ccc1ccccc12` [Bis(2-imidazolin-2-ylhydrazone)-7,12-benz[a]anthracene dicarboxaldehyde dihydrochloride], the “Median Survival” value amounted to 15.0 days in experiment [2] (setting [9]); 16.0 days in experiment [2] (setting [19]); 17.5 days in experiment [2] (setting [20]); 19.0 days in experiment [2] (setting [21]); 19.0 days in experiment [2] (setting [22]). The “T/C × 100 (Percent)” value in experiment [2] (setting [9]) is recorded as 150%; in experiment [2] (setting [19]), 160%; in experiment [2] (setting [20]), 175%; in experiment [2] (setting [21]), 190%; in experiment [2] (setting [22]) it was 190%. The MIC came out at 8 µg/mL in the experiment on Enterococcus, SM 77-15; 16 µg/mL in experiment [3]; 8 µg/mL in experiment [4]; 8 µg/mL in experiment [5].
